pIC50: −log10 of the molar value. Where a SMILES comes first, the peptide text is derived from it. Bridges are numbered along the chain shown (N, C = ends). [ ]: non-standard residue; d: D form. The star is where a group is joined. Phe(4-COOH) = N[C@@H](Cc1ccc(C(=O)O)cc1)C(=O)O; Bip = N[C@@H](Cc1ccc(-c2ccccc2)cc1)C(=O)O; Cha = N[C@@H](CC1CCCCC1)C(=O)O; Cit = NC(=O)NCCC[C@H](N)C(=O)O; dNle = CCCC[C@@H](N)C(=O)O; Carboxymethyl = O=C(O)C*; Orn = NCCC[C@H](N)C(=O)O; Dab = NCC[C@H](N)C(=O)O; Dap = NC[C@H](N)C(=O)O
What follows are molecules tested against T1, human PD-1 / PD-L1-Ig binding on Jurkat cell line over-expressing human PD-1 (Jurkat-PD-1) (Homo sapiens, UniProt Q15116) (assay: Jurkat-PD-1 Cell Binding High-Content Screening Assay (CBA)). Details: Jurkat-PD-1 cells, PE-labeled PD-L1-Ig 20 nM final; read-out: Jurkat HPD1_PDL1 IC50.
T1 construct: expressed in transfected cells; host or cells: Jurkat
T1 sequence (Q15116 25-288): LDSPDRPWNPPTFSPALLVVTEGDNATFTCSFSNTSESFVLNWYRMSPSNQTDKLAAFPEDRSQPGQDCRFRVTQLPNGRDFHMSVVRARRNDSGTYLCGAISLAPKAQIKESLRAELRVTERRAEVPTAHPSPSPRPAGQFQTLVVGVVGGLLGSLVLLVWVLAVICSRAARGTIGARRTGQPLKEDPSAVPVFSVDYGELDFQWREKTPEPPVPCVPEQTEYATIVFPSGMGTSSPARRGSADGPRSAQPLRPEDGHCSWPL
Format: cell-based
Procedure, shortened: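 Cell-bound PE-labeled PD-L1-Ig (20 nM final, 1 h) measured by high-content imaging after fixation and Hoechst 33342 counterstain. Compound was applied first for 2 h at 37° C. to Jurkat cells over-expressing human PD-1 in DMEM with 10% FCS.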
For `CC(C)C[C@H]1NC(=O)[C@H](CCCN)NC(=O)[C@H](C(C)C)NC(=O)[C@H](Cc2ccc(-c3ccccc3)cc2)NC(=O)[C@H](C(C)C)NC(=O)[C@H](Cc2c[nH]c3ccccc23)NC(=O)[C@H](CC(=O)O)NC(=O)[C@H](Cc2ccc(C(=O)O)cc2)NC(=O)[C@H](Cc2ccc(OCC(=O)O)cc2)NC(=O)CSC[C@@H](C(=O)N[C@@H](C)C(N)=O)NC(=O)[C@H]([C@@H](C)O)NC(=O)[C@H](C(C)C)NC(=O)[C@H](Cc2ccc(O)cc2)NC(=O)[C@H](CCN)NC1=O` [Compound 1682] ({CH2CO}-Y(Carboxymethyl)[Phe(4-COOH)]DWV[Bip]V[Orn][dL][Dab]YVTCA-NH2; thioether N-14), the pIC50 was 7.18.
`CC(C)C[C@H]1NC(=O)[C@H](CCCN)NC(=O)[C@H](C(C)C)NC(=O)[C@H](Cc2ccc(-c3ccccc3)cc2)NC(=O)[C@H](C(C)C)NC(=O)[C@H](Cc2c[nH]c3ccccc23)NC(=O)[C@H](CC(=O)O)NC(=O)[C@H](Cc2ccc(OCC(=O)O)cc2)NC(=O)[C@H](Cc2ccc(OCC(=O)O)cc2)NC(=O)CSC[C@@H](C(=O)N[C@@H](C)C(N)=O)NC(=O)[C@H]([C@@H](C)O)NC(=O)[C@H](C(C)C)NC(=O)[C@H](Cc2ccc(O)cc2)NC(=O)[C@H](CCN)NC1=O` [Compound 1683] ({CH2CO}-Y(Carboxymethyl)Y(Carboxymethyl)DWV[Bip]V[Orn][dL][Dab]YVTCA-NH2; thioether N-14) gave a pIC50 of 6.98.
For `CC(C)C[C@H]1NC(=O)[C@H](CCCN)NC(=O)[C@H](CCCNC(N)=O)NC(=O)[C@H](Cc2ccc(-c3ccccc3)cc2)NC(=O)[C@H](C(C)C)NC(=O)[C@H](Cc2c[nH]c3ccccc23)NC(=O)[C@H](CC(=O)O)NC(=O)[C@H](Cc2ccc(C(=O)O)cc2)NC(=O)[C@H](Cc2ccc(OCC(=O)O)cc2)NC(=O)CSC[C@@H](C(=O)N[C@@H](C)C(N)=O)NC(=O)[C@H]([C@@H](C)O)NC(=O)[C@H](C(C)C)NC(=O)[C@H](Cc2ccc(O)cc2)NC(=O)[C@H](CCN)NC1=O` [Compound 1684] ({CH2CO}-Y(Carboxymethyl)[Phe(4-COOH)]DWV[Bip][Cit][Orn][dL][Dab]YVTCA-NH2; thioether N-14), the pIC50 was 6.92.
Molecule `CC(C)C[C@H]1NC(=O)[C@H](CCCN)NC(=O)[C@H](CCCNC(N)=O)NC(=O)[C@H](Cc2ccc(-c3ccccc3)cc2)NC(=O)[C@H](C(C)C)NC(=O)[C@H](Cc2c[nH]c3ccccc23)NC(=O)[C@H](CC(=O)O)NC(=O)[C@H](Cc2ccc(OCC(=O)O)cc2)NC(=O)[C@H](Cc2ccc(OCC(=O)O)cc2)NC(=O)CSC[C@@H](C(=O)N[C@@H](C)C(N)=O)NC(=O)[C@H]([C@@H](C)O)NC(=O)[C@H](C(C)C)NC(=O)[C@H](Cc2ccc(O)cc2)NC(=O)[C@H](CCN)NC1=O` [Compound 1685] ({CH2CO}-Y(Carboxymethyl)Y(Carboxymethyl)DWV[Bip][Cit][Orn][dL][Dab]YVTCA-NH2; thioether N-14) has a pIC50 of 6.76.
With `CC(C)C[C@H]1NC(=O)[C@H](CCCN)NC(=O)[C@H](CCC(=O)O)NC(=O)[C@H](Cc2ccc(-c3ccccc3)cc2)NC(=O)[C@H](C(C)C)NC(=O)[C@H](Cc2c[nH]c3ccccc23)NC(=O)[C@H](CC(=O)O)NC(=O)[C@H](Cc2ccc(OCC(=O)O)cc2)NC(=O)[C@H](CN)NC(=O)CSC[C@@H](C(=O)N[C@@H](C)C(N)=O)NC(=O)[C@H]([C@@H](C)O)NC(=O)[C@H](C(C)C)NC(=O)[C@H](Cc2ccc(O)cc2)NC(=O)[C@H](CCN)NC1=O` [Compound 1686] ({CH2CO}-[Dap]Y(Carboxymethyl)DWV[Bip]E[Orn][dL][Dab]YVTCA-NH2; thioether N-14) the pIC50 was 6.67.
`CC(C)C[C@H]1NC(=O)[C@H](CCCN)NC(=O)[C@H](CCC(=O)O)NC(=O)[C@H](Cc2ccc(-c3ccccc3)cc2)NC(=O)[C@H](C(C)C)NC(=O)[C@H](Cc2c[nH]c3ccccc23)NC(=O)[C@H](CC(=O)O)NC(=O)[C@H](Cc2ccc(C(=O)O)cc2)NC(=O)[C@H](Cc2ccc(OCC(=O)O)cc2)NC(=O)CSC[C@@H](C(=O)N[C@@H](C)C(N)=O)NC(=O)[C@H]([C@@H](C)O)NC(=O)[C@H](C(C)C)NC(=O)[C@H](Cc2ccc(O)cc2)NC(=O)[C@H](CCN)NC1=O` [Compound 1687] ({CH2CO}-Y(Carboxymethyl)[Phe(4-COOH)]DWV[Bip]E[Orn][dL][Dab]YVTCA-NH2; thioether N-14) showed a pIC50 of 6.43.
`CC(C)C[C@H]1NC(=O)[C@H](CCCN)NC(=O)[C@H](CCC(=O)O)NC(=O)[C@H](Cc2ccc(-c3ccccc3)cc2)NC(=O)[C@H](C(C)C)NC(=O)[C@H](Cc2c[nH]c3ccccc23)NC(=O)[C@H](CC(=O)O)NC(=O)[C@H](Cc2ccc(OCC(=O)O)cc2)NC(=O)[C@H](Cc2ccc(OCC(=O)O)cc2)NC(=O)CSC[C@@H](C(=O)N[C@@H](C)C(N)=O)NC(=O)[C@H]([C@@H](C)O)NC(=O)[C@H](C(C)C)NC(=O)[C@H](Cc2ccc(O)cc2)NC(=O)[C@H](CCN)NC1=O` [Compound 1688] ({CH2CO}-Y(Carboxymethyl)Y(Carboxymethyl)DWV[Bip]E[Orn][dL][Dab]YVTCA-NH2; thioether N-14) showed a pIC50 of 6.20.
In the case of `CC(C)C[C@H]1NC(=O)[C@H](CCCN)NC(=O)[C@H](C(C)C)NC(=O)[C@H](Cc2ccc(-c3ccccc3)cc2)NC(=O)[C@H](C(C)C)NC(=O)[C@H](Cc2c[nH]c3ccccc23)NC(=O)[C@H](CC(=O)O)NC(=O)[C@H](Cc2ccc(C(=O)O)cc2)NC(=O)[C@H](Cc2ccncc2)NC(=O)CSC[C@@H](C(=O)N[C@@H](C)C(N)=O)NC(=O)[C@H]([C@@H](C)O)NC(=O)[C@H](C(C)C)NC(=O)[C@H](CC2CCCCC2)NC(=O)[C@H](CCN)NC1=O` [Compound 1689], the pIC50 was 7.57.
In the case of `CC(C)C[C@H]1NC(=O)[C@H](CCCN)NC(=O)[C@H](C(C)C)NC(=O)[C@H](Cc2ccc(-c3ccccc3)cc2)NC(=O)[C@H](C(C)C)NC(=O)[C@H](Cc2c[nH]c3ccccc23)NC(=O)[C@H](CC(=O)O)NC(=O)[C@H](Cc2ccc(OCC(=O)O)cc2)NC(=O)[C@H](Cc2ccc(OCC(=O)O)cc2)NC(=O)CSC[C@@H](C(=O)N[C@@H](C)C(N)=O)NC(=O)[C@H]([C@@H](C)O)NC(=O)[C@H](C(C)C)NC(=O)[C@H](CC2CCCCC2)NC(=O)[C@H](CCN)NC1=O` [Compound 1690], the pIC50 was 7.91.
`CC(C)C[C@H]1NC(=O)[C@H](CCCN)NC(=O)[C@H](C(C)C)NC(=O)[C@H](Cc2ccc(-c3ccccc3)cc2)NC(=O)[C@H](C(C)C)NC(=O)[C@H](Cc2c[nH]c3ccccc23)NC(=O)[C@H](CC(=O)O)NC(=O)[C@H](Cc2ccc(C(=O)O)cc2)NC(=O)[C@H](Cc2ccc(OCC(=O)O)cc2)NC(=O)CSC[C@@H](C(=O)N[C@@H](C)C(N)=O)NC(=O)[C@H]([C@@H](C)O)NC(=O)[C@H](C(C)C)NC(=O)[C@H](CC2CCCCC2)NC(=O)[C@H](CCN)NC1=O` [Compound 1691] showed a pIC50 of 7.48.
`CCCC[C@H]1NC(=O)[C@H](CCCN)NC(=O)[C@H](C(C)C)NC(=O)[C@H](Cc2ccc(-c3ccccc3)cc2)NC(=O)[C@H](C(C)C)NC(=O)[C@H](Cc2c[nH]c3ccccc23)NC(=O)[C@H](CC(=O)O)NC(=O)[C@H](Cc2ccc(OCC(=O)O)cc2)NC(=O)[C@H](CN)NC(=O)CSC[C@@H](C(=O)N[C@@H](C)C(N)=O)NC(=O)[C@H]([C@@H](C)O)NC(=O)[C@H](C(C)C)NC(=O)[C@H](CC2CCCCC2)NC(=O)[C@H](CCN)NC1=O` [Compound 1692] gave a pIC50 of 7.97.
With `CCCC[C@H]1NC(=O)[C@H](CCCN)NC(=O)[C@H](C(C)C)NC(=O)[C@H](Cc2ccc(-c3ccccc3)cc2)NC(=O)[C@H](C(C)C)NC(=O)[C@H](Cc2c[nH]c3ccccc23)NC(=O)[C@H](CC(=O)O)NC(=O)[C@H](Cc2ccc(OCC(=O)O)cc2)NC(=O)[C@H](Cc2ccncc2)NC(=O)CSC[C@@H](C(=O)N[C@@H](C)C(N)=O)NC(=O)[C@H]([C@@H](C)O)NC(=O)[C@H](C(C)C)NC(=O)[C@H](CC2CCCCC2)NC(=O)[C@H](CCN)NC1=O` [Compound 1693] the pIC50 was 8.04.
Molecule `CCCC[C@H]1NC(=O)[C@H](CCCN)NC(=O)[C@H](C(C)C)NC(=O)[C@H](Cc2ccc(-c3ccccc3)cc2)NC(=O)[C@H](C(C)C)NC(=O)[C@H](Cc2c[nH]c3ccccc23)NC(=O)[C@H](CC(=O)O)NC(=O)[C@H](Cc2ccncc2)NC(=O)[C@H](Cc2ccc(OCC(=O)O)cc2)NC(=O)CSC[C@@H](C(=O)N[C@@H](C)C(N)=O)NC(=O)[C@H]([C@@H](C)O)NC(=O)[C@H](C(C)C)NC(=O)[C@H](CC2CCCCC2)NC(=O)[C@H](CCN)NC1=O` [Compound 1694] has a pIC50 of 7.46.
With `CCCC[C@H]1NC(=O)[C@H](CCCN)NC(=O)[C@H](C(C)C)NC(=O)[C@H](Cc2ccc(-c3ccccc3)cc2)NC(=O)[C@H](C(C)C)NC(=O)[C@H](Cc2c[nH]c3ccccc23)NC(=O)[C@H](CC(=O)O)NC(=O)[C@H](Cc2ccncc2)NC(=O)[C@H](CN)NC(=O)CSC[C@@H](C(=O)N[C@@H](C)C(N)=O)NC(=O)[C@H]([C@@H](C)O)NC(=O)[C@H](C(C)C)NC(=O)[C@H](CC2CCCCC2)NC(=O)[C@H](CCN)NC1=O` [Compound 1695] the pIC50 was 7.46.
`CCCC[C@H]1NC(=O)[C@H](CCCN)NC(=O)[C@H](C(C)C)NC(=O)[C@H](Cc2ccc(-c3ccccc3)cc2)NC(=O)[C@H](C(C)C)NC(=O)[C@H](Cc2c[nH]c3ccccc23)NC(=O)[C@H](CC(=O)O)NC(=O)[C@H](Cc2ccc(O)cc2)NC(=O)[C@H](CC(N)=O)NC(=O)CSC[C@@H](C(=O)N[C@@H](C)C(N)=O)NC(=O)[C@H]([C@@H](C)O)NC(=O)[C@H](C(C)C)NC(=O)[C@H](CC2CCCCC2)NC(=O)[C@H](CCN)NC1=O` [Compound 1696] ({CH2CO}-NYDWV[Bip]V[Orn][dNle][Dab][Cha]VTCA-NH2; thioether N-14) gave a pIC50 of 7.73.
`CCCC[C@H]1NC(=O)[C@H](CCCN)NC(=O)[C@H](CCCNC(N)=O)NC(=O)[C@H](Cc2ccc(-c3ccccc3)cc2)NC(=O)[C@H](C(C)C)NC(=O)[C@H](Cc2c[nH]c3ccccc23)NC(=O)[C@H](CC(=O)O)NC(=O)[C@H](Cc2ccc(OCC(=O)O)cc2)NC(=O)[C@H](Cc2ccc(OCC(=O)O)cc2)NC(=O)CSC[C@@H](C(=O)N[C@@H](C)C(N)=O)NC(=O)[C@H]([C@@H](C)O)NC(=O)[C@H](C(C)C)NC(=O)[C@H](CC2CCCCC2)NC(=O)[C@H](CCN)NC1=O` [Compound 1698] was tested, and the pIC50 was 7.49.
